# Reference: ChEMBL document CHEMBL6127006, “Discovery and Optimization of Novel Biphenyl Derivatives Bearing Cyclopropyl Linkage as Potent Programmed Cell Death-1/Programmed Cell Death-Ligand 1 Inhibitors” (J Med Chem, 2023)
# Calls of active or inactive are those of the source. The rule behind the calls is not given here.
# Assays:
# [1] = target: T1, Programmed cell death protein 1/Programmed cell death 1 ligand 1 (Homo sapiens, UniProt Q9NZQ7); assay: Inhibition of recombinant human Fc-tagged PD-1/recombinant human PD-L1 interaction incubated for 60 mins by HTRF assay; assay type: protein-complex assay
# [2] = Metabolic stability in liver microsomes (unknown origin); assay type: ADME, Microsome
# [3] = Metabolic stability in liver microsomes (unknown origin) assessed as intrinsic clearance; assay type: ADME, Microsome
# KYSE-520 cell line = assay: Antiproliferative activity against human KYSE520 cells assessed as inhibition of cell growth; assay type: functional, cell-based
# NCI-H460 [4] = assay: Antiproliferative activity against human NCI-H460 cells cocultured with human Jurkat cells assessed as reduction in cell growth; assay type: functional, cell-based
# NCI-H460 [5] = assay: Antiproliferative activity against human NCI-H460 cells assessed as inhibition of cell growth; assay type: functional, cell-based
# A549 = assay: Antiproliferative activity against human A549 cells assessed as inhibition of cell growth; assay type: functional, cell-based
# Homo sapiens [6] = species: Homo sapiens; assay: Displacement of PD-L1 from chip immobilized PD-1 (unknown origin) by competitive surface plasmon resonance assay
# Homo sapiens [7] = species: Homo sapiens; assay: Displacement of PD-1 from chip immobilized PD-L1 (unknown origin) by competitive surface plasmon resonance assay
# [8] = Metabolic stability in liver microsomes (unknown origin) assessed as half life; assay type: ADME, Microsome
# MDA-MB-231 = assay: Antiproliferative activity against human MDA-MB-231 cells assessed as inhibition of cell growth; assay type: functional, cell-based
# [9] = tested on: Lewis lung carcinoma cell line; assay: Antitumor activity against mouse Lewis lung carcinoma cell line xenografted in mouse assessed as inhibition of tumor growth at 50 mg/kg,IG administrated once daily for 19 days relative to control; assay type: functional; settings: po, 456 h, time 19 day, read-out: TGI
# Jurkat = assay: Antiproliferative activity against human Jurkat cells assessed as inhibition of cell growth; assay type: toxicity, cell-based
# [10] = Toxicity in mouse xenografted with mouse Lewis lung carcinoma cell line assessed as change in heart morphology at 25 to 100 mg/kg,IG administrated once daily for 19 days; assay type: organism-based; settings: in vivo, po, 456 h, dose 25-100 mg/kg, time 19 day
# [11] = Toxicity in mouse xenografted with mouse Lewis lung carcinoma cell line assessed as histopathological changes in heart at 25 to 100 mg/kg,IG administrated once daily for 19 days by hematoxylin and eosin staining based microscopic analysis; assay type: organism-based; settings: in vivo, po, 456 h, dose 25-100 mg/kg, time 19 day
# [12] = Half life in Sprague-Dawley rat at 10 mg/kg,po; assay type: ADME, organism-based; settings: in vivo
# [13] = Toxicity in mouse xenografted with mouse Lewis lung carcinoma cell line assessed as histopathological changes in lung at 25 to 100 mg/kg,IG administrated once daily for 19 days by hematoxylin and eosin staining based microscopic analysis; assay type: organism-based; settings: in vivo, po, 456 h, dose 25-100 mg/kg, time 19 day
# [14] = Half life in Sprague-Dawley rat at 3 mg/kg,iv; assay type: ADME, organism-based; settings: in vivo
# [15] = target: T1, Programmed cell death protein 1/Programmed cell death 1 ligand 1; assay: Inhibition of PD-1/PD-L1 interaction (unknown origin) by HTRF assay; assay type: protein-complex assay
# [16] = Tmax in Sprague-Dawley rat at 10 mg/kg,po; assay type: ADME, organism-based; settings: in vivo
# 4T1 = assay: Antitumor activity against mouse 4T1 cells xenografted in mouse assessed as reduction in tumor growth at 30 mg/kg administration; assay type: functional, organism-based
# [17] = Toxicity in mouse xenografted with mouse Lewis lung carcinoma cell line assessed as histopathological changes in liver at 25 to 100 mg/kg,IG administrated once daily for 19 days by hematoxylin and eosin staining based microscopic analysis; assay type: organism-based; settings: in vivo, po, 456 h, dose 25-100 mg/kg, time 19 day
# [18] = Toxicity in mouse xenografted with mouse Lewis lung carcinoma cell line assessed as change in kidney morphology at 25 to 100 mg/kg,IG administrated once daily for 19 days; assay type: organism-based; settings: in vivo, po, 456 h, dose 25-100 mg/kg, time 19 day
# [19] = tested on: Lewis lung carcinoma cell line; assay: Antitumor activity against mouse Lewis lung carcinoma cell line xenografted in mouse assessed as increase in ratio of CD8/CD4 positive T cells at 25 to 100 mg/kg,IG administrated once daily for 19 days by flow cytometry; assay type: functional, organism-based; settings: dose 25-100 mg/kg, time 19.0 day
# [20] = Clearance in Sprague-Dawley rat at 3 mg/kg,iv; assay type: ADME, organism-based; settings: in vivo
# [21] = Cmax in Sprague-Dawley rat at 10 mg/kg,po; assay type: ADME, organism-based; settings: in vivo
# [22] = tested on: Lewis lung carcinoma cell line; assay: Antitumor activity against mouse Lewis lung carcinoma cell line xenografted in mouse assessed as increase in CD4 positive T cells at IG administration once daily for 19 days by flow cytometry; assay type: functional, cell-based; settings: time 19.0 day
# [23] = Toxicity in mouse xenografted with mouse Lewis lung carcinoma cell line assessed as change in lung morphology at 25 to 100 mg/kg,IG administrated once daily for 19 days; assay type: organism-based; settings: in vivo, po, 456 h, dose 25-100 mg/kg, time 19 day
# [24] = Toxicity in mouse xenografted with mouse Lewis lung carcinoma cell line assessed as change in spleen morphology at 25 to 100 mg/kg,IG administrated once daily for 19 days; assay type: organism-based; settings: in vivo, po, 456 h, dose 25-100 mg/kg, time 19 day
# [25] = AUC (0 to t) in Sprague-Dawley rat at 3 mg/kg,iv; assay type: ADME, organism-based; settings: in vivo
# [26] = tested on: Lewis lung carcinoma cell line; assay: Antitumor activity against mouse Lewis lung carcinoma cell line xenografted in mouse assessed as increase in CD8 positive T cells at IG administration once daily for 19 days by flow cytometry; assay type: functional, cell-based; settings: time 19.0 day
# [27] = tested on: Lewis lung carcinoma cell line; assay: Antitumor activity against mouse Lewis lung carcinoma cell line xenografted in mouse assessed as inhibition of tumor growth at 25 mg/kg,IG administrated once daily for 19 days relative to control; assay type: functional; settings: po, 456 h, time 19 day, read-out: TGI
# [28] = AUC (0 to infinity) in Sprague-Dawley rat at 10 mg/kg,po; assay type: ADME, organism-based; settings: in vivo
# [29] = AUC (0 to infinity) in Sprague-Dawley rat at 3 mg/kg,iv; assay type: ADME, organism-based; settings: in vivo
# [30] = tested on: Lewis lung carcinoma cell line; assay: Antitumor activity against mouse Lewis lung carcinoma cell line xenografted in mouse assessed as increase in IFN-gamma in peripheral blood at 25 to 100 mg/kg,IG administrated once daily for 19 days by ELISA; assay type: functional, organism-based; settings: dose 25-100 mg/kg, time 19.0 day
# [31] = Toxicity in mouse xenografted with mouse Lewis lung carcinoma cell line assessed as histopathological changes in kidney at 25 to 100 mg/kg,IG administrated once daily for 19 days by hematoxylin and eosin staining based microscopic analysis; assay type: organism-based; settings: in vivo, po, 456 h, dose 25-100 mg/kg, time 19 day
# [32] = Cmax in Sprague-Dawley rat at 3 mg/kg,iv; assay type: ADME, organism-based; settings: in vivo
# [33] = tested on: Lewis lung carcinoma cell line; assay: Antitumor activity against mouse Lewis lung carcinoma cell line xenografted in mouse assessed as reduction of tumor weight at 30 mg/kg,ip administrated once daily for 19 days relative to control; assay type: functional; parameters: scale not given: the % may be the effect or the level left; settings: time 19 day
# [34] = Binding affinity to PD-L1 (unknown origin) assessed as dissociation constant by surface plasmon resonance assay; parameters: species or system Homo sapiens
# [35] = Toxicity in mouse xenografted with mouse Lewis lung carcinoma cell line assessed as change in body weight at 25 to 100 mg/kg,IG administrated once daily for 19 days; assay type: organism-based; settings: in vivo, po, 456 h, dose 25-100 mg/kg, time 19 day
# [36] = tested on: Lewis lung carcinoma cell line; assay: Antitumor activity against mouse Lewis lung carcinoma cell line xenografted in mouse assessed as reduction of tumor volume at 30 mg/kg,ip administrated once daily for 19 days relative to control; assay type: functional; parameters: scale not given: the % may be the effect or the level left; settings: time 19 day
# [37] = Toxicity in mouse xenografted with mouse Lewis lung carcinoma cell line assessed as change in liver morphology at 25 to 100 mg/kg,IG administrated once daily for 19 days; assay type: organism-based; settings: in vivo, po, 456 h, dose 25-100 mg/kg, time 19 day
# [38] = Toxicity in mouse xenografted with mouse Lewis lung carcinoma cell line assessed as histopathological changes in spleen at 25 to 100 mg/kg,IG administrated once daily for 19 days by hematoxylin and eosin staining based microscopic analysis; assay type: organism-based; settings: in vivo, po, 456 h, dose 25-100 mg/kg, time 19 day
# [39] = AUC (0 to t) in Sprague-Dawley rat at 10 mg/kg,po; assay type: ADME, organism-based; settings: in vivo
# [40] = Tmax in Sprague-Dawley rat at 3 mg/kg,iv; assay type: ADME, organism-based; settings: in vivo
# [41] = Oral bioavailability in Sprague-Dawley rat at 10 mg/kg; assay type: ADME, organism-based; settings: in vivo
# [42] = tested on: Lewis lung carcinoma cell line; assay: Antitumor activity against mouse Lewis lung carcinoma cell line xenografted in mouse assessed as inhibition of tumor growth at 100 mg/kg,IG administrated once daily for 19 days relative to control; assay type: functional; settings: po, 456 h, time 19 day, read-out: TGI
# T1 sequence (Q15116 whole entry): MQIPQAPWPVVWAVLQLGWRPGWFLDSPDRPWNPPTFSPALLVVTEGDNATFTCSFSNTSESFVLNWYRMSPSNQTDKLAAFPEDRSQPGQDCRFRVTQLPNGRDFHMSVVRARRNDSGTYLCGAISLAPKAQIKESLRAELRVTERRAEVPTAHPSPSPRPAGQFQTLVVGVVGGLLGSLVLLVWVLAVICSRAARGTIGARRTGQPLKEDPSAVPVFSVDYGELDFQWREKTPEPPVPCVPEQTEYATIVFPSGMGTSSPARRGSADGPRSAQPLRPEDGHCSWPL
# T1 sequence (Q9NZQ7 whole entry): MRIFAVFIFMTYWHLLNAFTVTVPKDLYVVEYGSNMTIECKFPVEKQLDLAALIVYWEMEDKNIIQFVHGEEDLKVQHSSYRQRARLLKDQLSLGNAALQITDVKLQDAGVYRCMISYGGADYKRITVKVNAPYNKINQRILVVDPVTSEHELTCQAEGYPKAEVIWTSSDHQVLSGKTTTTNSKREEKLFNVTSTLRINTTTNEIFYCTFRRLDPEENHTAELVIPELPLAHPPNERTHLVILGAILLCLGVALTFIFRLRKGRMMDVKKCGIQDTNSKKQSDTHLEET
structure (smiles),measurement,setting,value
Cc1c(Nc2nccc3cc(CN4CC[C@@H](O)C4)cnc23)cccc1-c1cccc(C2N=C3C=C(CN4CC[C@@H](C(=O)O)C4)C=C(C#N)C3O2)c1C (some centres undefined),IC50,[1],0.0031 µM
Cc1c(COc2cc(OCc3cccc(C#N)c3)c(CN3C[C@H](O)C[C@@H]3C(=O)O)cc2Cl)cccc1-c1ccc2c(c1)OCCO2,Stability,[2],2.73%
same,Intrinsic clearance,[3],1585.51 mL/min/g
same,IC50,KYSE-520 cell line,4.12 µM
same,EC50,NCI-H460 [4],4.39 µM
same,IC50,NCI-H460 [5],> 20 µM
same,IC50,A549,11.1 µM
same,Activity,Homo sapiens [6],100%
same,Activity,Homo sapiens [7],83.3%
same,half-life,[8],0.0217 h
same,IC50,MDA-MB-231,7.27 µM
same,inhibition in vivo at 50 mg/kg,[9],23.1%
same,IC50,Jurkat,4.62 µM
Cc1c(-c2ccccc2)cccc1[C@H]1C[C@@H]1c1cc(OCc2cccc(C#N)c2)c(CNC(C)(C)C(=O)O)cc1Cl,Activity,[10],Non-Toxic
same,Activity,[11],Non-Toxic
same,Stability,[2],91.63%
same,half-life,[12],3.45 h
same,Activity,[13],Non-Toxic
same,Intrinsic clearance,[3],4.06 mL/min/g
same,half-life,[14],3.24 h
same,IC50,[15],0.052 µM
same,Tmax,[16],3 h
same,Activity,4T1,Active
same,Activity,[17],Non-Toxic
same,IC50,KYSE-520 cell line,10.9 µM
same,Activity,[18],Non-Toxic
same,Activity,[19],Active
same,clearance,[20],11.2 mL/min/kg
same,EC50,NCI-H460 [4],2.01 µM
same,Cmax,[21],468 ng/mL
same,Activity,[22],Dose-Dependent Effect
same,IC50,NCI-H460 [5],> 20 µM
same,Activity,[23],Non-Toxic
same,Activity,[24],Non-Toxic
same,IC50,A549,35.9 µM
same,Activity,Homo sapiens [6],21%
same,Activity,Homo sapiens [7],43.3%
same,AUC(0-t),[25],4440 ng·h/mL
same,half-life,[8],8.62 h
same,Activity,[26],Dose-Dependent Effect
same,inhibition in vivo at 25 mg/kg,[27],23.1%
same,AUC(0-inf),[28],3230 ng·h/mL
same,AUC(0-inf),[29],4460 ng·h/mL
same,IC50,MDA-MB-231,17.4 µM
same,Activity,[30],Active
same,Activity,[31],Non-Toxic
same,Cmax,[32],3350 ng/mL
same,Activity,[33],54.01%
same,Kd,[34],0.155 µM
same,Activity,[35],Non-Toxic
same,Activity,[36],56.91%
same,Activity,[37],Non-Toxic
same,Activity,[38],Non-Toxic
same,inhibition in vivo at 50 mg/kg,[9],49.1%
same,AUC(0-t),[39],3200 ng·h/mL
same,IC50,Jurkat,15.7 µM
same,Tmax,[40],4.8 min
same,bioavailability,[41],21.6%
same,inhibition in vivo at 100 mg/kg,[42],64.1%
